Laboratory results published in ChEMBL document CHEMBL1123539, “[p-[(Thienylcarbonyl)amino]phenoxy]propanolamines derivatives as diuretic and beta-adrenergic receptor blocking agents” (1986).

Tests used:
[1] = target: Beta-2 adrenergic receptor (Canis lupus familiaris) (UniProt P54833)
Description: The compound was tested for beta-2 adrenergic receptor blocking activity in dogs

[2] = target: Beta-1 adrenergic receptor (Homo sapiens) (UniProt P08588); conditions: Canis lupus familiaris
Description: Compound was tested for beta-1 adrenergic receptor blocking activity in dogs

Rattus norvegicus [3] = assay: Compound was tested for oral salidiuretic activity (control/drug treatment value) in rats expressed as urinary output. at a dose of 128 mg/kg; 7.67/6.97; assay type: functional, Urine
Rattus norvegicus [4] = assay: Compound was tested for oral salidiuretic activity (control/drug treatment value) in rats expressed in Na+, mequiv/6 hr at a dose of 128 mg/kg; 0.310/0.148; assay type: functional, Urine
Rattus norvegicus [5] = assay: Compound was tested for oral salidiuretic activity (control/drug treatment value) in rats expressed as urinary output. at a dose of 128 mg/kg; 7.17/11.25; assay type: functional, Urine
Rattus norvegicus [6] = assay: Compound was tested for oral salidiuretic activity (control/drug treatment value) in rats expressed in Na+, mequiv/6 hr at a dose of 128 mg/kg; 0.202/0.961; assay type: functional, Urine
Rattus norvegicus [7] = assay: Compound was tested for oral salidiuretic activity (control/drug treatment value) in rats expressed in Na+, mequiv/6 hr at a dose of 128 mg/kg; 0.163/0.133; assay type: functional, Urine
Rattus norvegicus [8] = assay: Compound was tested for oral salidiuretic activity (control/drug treatment value) in rats expressed as urinary output. at a dose of 128 mg/kg; 8.72/8.02; assay type: functional, Urine
Rattus norvegicus [9] = assay: Compound was tested for oral salidiuretic activity (control/drug treatment value) in rats expressed as urinary output. at a dose of 32 mg/kg; 7.87/8.10; assay type: functional, Urine
Rattus norvegicus [10] = assay: Compound was tested for oral salidiuretic activity (control/drug treatment value) in rats expressed in Na+, mequiv/6 hr at a dose of 32 mg/kg; 0.177/0.305; assay type: functional, Urine
Rattus norvegicus [11] = assay: Compound was tested for oral salidiuretic activity (control/drug treatment value) in rats expressed as urinary output. at a dose of 128 mg/kg; 8.42/6.75; assay type: functional, Urine
Rattus norvegicus [12] = assay: Compound was tested for oral salidiuretic activity (control/drug treatment value) in rats expressed in Na+, mequiv/6 hr at a dose of 128 mg/kg; 0.186/0.243; assay type: functional, Urine
Rattus norvegicus [13] = assay: Compound was tested for oral salidiuretic activity (control/drug treatment value) in rats expressed in Na+, mequiv/6 hr at a dose of 128 mg/kg; 0.186/0.853; assay type: functional, Urine
Rattus norvegicus [14] = assay: Compound was tested for oral salidiuretic activity (control/drug treatment value) in rats expressed as urinary output. at a dose of 128 mg/kg; 8.42/10.18; assay type: functional, Urine
Rattus norvegicus [15] = assay: Compound was tested for oral salidiuretic activity (control/drug treatment value) in rats expressed in Na+, mequiv/6 h at a dose of 128 mg/kg; 0.102/0.380; assay type: functional, Urine
Rattus norvegicus [16] = assay: Compound was tested for oral salidiuretic activity (control/drug treatment value) in rats expressed as urinary output. at a dose of 128 mg/kg; 6.50/8.47; assay type: functional, Urine
Rattus norvegicus [17] = assay: Compound was tested for oral salidiuretic activity (control/drug treatment value) in rats expressed in Na+, mequiv/6 hr at a dose of 128 mg/kg; 0.144/0.470; assay type: functional, Urine
Rattus norvegicus [18] = assay: Compound was tested for oral salidiuretic activity (control/drug treatment value) in rats expressed as urinary output. at a dose of 128 mg/kg; 7.33/10.83; assay type: functional, Urine
Rattus norvegicus [19] = assay: Compound was tested for oral salidiuretic activity (control/drug treatment value) in rats expressed in Na+, mequiv/6 h at a dose of 128 mg/kg; 0.210/0.796; assay type: functional, Urine

Chain of Beta-2 adrenergic receptor (Canis lupus familiaris) (P54833 whole entry, looked up): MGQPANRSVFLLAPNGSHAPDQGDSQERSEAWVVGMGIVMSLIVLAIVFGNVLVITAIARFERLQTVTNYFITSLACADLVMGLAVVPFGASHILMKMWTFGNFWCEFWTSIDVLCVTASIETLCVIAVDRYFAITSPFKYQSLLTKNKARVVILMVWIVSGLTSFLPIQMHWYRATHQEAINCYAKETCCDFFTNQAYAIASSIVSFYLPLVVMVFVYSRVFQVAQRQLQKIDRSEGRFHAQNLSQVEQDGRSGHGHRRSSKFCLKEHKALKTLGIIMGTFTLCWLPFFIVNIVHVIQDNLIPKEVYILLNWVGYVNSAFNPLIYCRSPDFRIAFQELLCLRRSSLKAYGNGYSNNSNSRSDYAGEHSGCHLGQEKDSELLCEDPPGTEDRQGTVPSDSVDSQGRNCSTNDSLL
Chain of Beta-1 adrenergic receptor (Homo sapiens) (P08588 whole entry, looked up): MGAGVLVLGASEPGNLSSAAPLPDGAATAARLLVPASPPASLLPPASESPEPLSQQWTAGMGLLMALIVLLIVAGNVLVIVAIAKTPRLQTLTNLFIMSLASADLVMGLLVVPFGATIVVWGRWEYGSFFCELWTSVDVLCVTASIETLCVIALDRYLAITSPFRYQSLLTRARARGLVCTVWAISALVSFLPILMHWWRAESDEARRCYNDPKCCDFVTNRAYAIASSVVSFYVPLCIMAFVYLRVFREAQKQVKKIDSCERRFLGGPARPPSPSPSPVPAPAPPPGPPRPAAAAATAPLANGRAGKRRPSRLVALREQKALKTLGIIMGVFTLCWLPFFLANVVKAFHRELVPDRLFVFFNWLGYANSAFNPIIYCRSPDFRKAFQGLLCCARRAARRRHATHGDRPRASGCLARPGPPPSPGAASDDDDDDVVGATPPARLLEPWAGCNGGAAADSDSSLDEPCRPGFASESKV

## CC(C)(C)NCC(O)COc1ccc(NC(=O)c2cccs2)cc1C(N)=O (stereo not drawn)
[1]
  ID50: > 1 mg/kg
[2]
  ID50: 0.12 mg/kg
Rattus norvegicus [3]
  Activity: 7.67 mL
Rattus norvegicus [4]
  Activity: 0.301

## CCCOC(=O)c1cc(NC(=O)c2cccs2)ccc1OCC(O)CNC(C)(C)C (stereo not drawn)
[1]
  ID50: > 1 mg/kg
[2]
  ID50: 0.27 mg/kg
Rattus norvegicus [5]
  Activity: 7.17 mL
Rattus norvegicus [6]
  Activity: 0.202

## CCOC(=O)c1cc(NC(=O)Cc2ccsc2)ccc1OCC(O)CNC(C)C (stereo not drawn)
[1]
  ID50: > 1 mg/kg
Rattus norvegicus [7]
  Activity: 0.163
[2]
  ID50: 0.02 mg/kg
Rattus norvegicus [8]
  Activity: 8.72 mL

## CC(=O)c1cc(NC(=O)c2cccs2)ccc1OCC(O)CNC(C)(C)C (stereo not drawn)
[1]
  ID50: > 1 mg/kg
Rattus norvegicus [9]
  Activity: 7.87 mL
[2]
  ID50: 0.022 mg/kg
Rattus norvegicus [10]
  Activity: 0.177

## CCOC(=O)c1cc(NC(=O)Cc2ccsc2)ccc1OCC(O)CNC(C)(C)C (stereo not drawn)
[1]
  ID50: 0.38 mg/kg
[2]
  ID50: 0.015 mg/kg
Rattus norvegicus [11]
  Activity: 8.42 mL
Rattus norvegicus [12]
  Activity: 0.186

## CCOC(=O)c1cc(NC(=O)c2ccsc2)ccc1OCC(O)CNC(C)(C)C (stereo not drawn)
[1]
  ID50: > 1 mg/kg
Rattus norvegicus [13]
  Activity: 0.186
[2]
  ID50: 0.06 mg/kg
Rattus norvegicus [14]
  Activity: 8.42 mL

## CC(C)(C)NCC(O)COc1ccc(NC(=O)c2cccs2)cc1C#N (stereo not drawn)
[1]
  ID50: 0.55 mg/kg
[2]
  ID50: 0.022 mg/kg
Rattus norvegicus [15]
  Activity: 0.102

## CCOC(=O)c1cc(NC(=O)c2ccsc2)ccc1OCC(O)CNC(C)C (stereo not drawn)
[1]
  ID50: > 1 mg/kg
Rattus norvegicus [16]
  treated urinary output: 8.47 mL
[2]
  ID50: 0.19 mg/kg
Rattus norvegicus [17]
  Activity: 0.144

## CCCOC(=O)c1cc(NC(=O)c2cccs2)ccc1OCC(O)CNC(C)C (stereo not drawn)
Rattus norvegicus [18]
  Activity: 7.33 mL
Rattus norvegicus [19]
  Activity: 0.21
